The data set can be described thus: gradient 5% acetonitrile 3 min, to 50% in 2 min, to 85% in 15 min, held 3 min, 100 µL/min. The following applies: column: Zorbax Extend-C18 2.1 x 50 mm; eluents: water / acetonitrile, 0.1% formic acid. In short, it runs like this:
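Retention times of pure standards were taken from adduct peaks that were selected by computer and manually inspected. Over 3 months, mixtures of ~100 molecules were run by HPLC–quadrupole time-of-flight mass spectrometry in positive and negative ionization mode. The Zorbax Extend-C18 column (2.1 × 50 mm, 1.8 μm) ran at 100 μL/min in water and acetonitrile, each containing 0.1% formic acid, with 40 μL dead volume and 900 μL dwell volume.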
Turning to `CCN1CCN(c2cc(C(=O)O)c3cc(NS(=O)(=O)c4ccc(C)cc4C)ccc3n2)CC1`, the RP-LC retention time was 638 s. Molecule `Cc1ccc(S(=O)(=O)N2CCC3(CC2)NCCN=C3NCc2ccc(F)cc2)cc1` had an RP-LC retention time of 709 s.

In the case of `Cc1ccccc1NC(=O)Cn1nc(N2CCOCC2)c2ccccc2c1=O`, the RP-LC retention time came to 774 s. `CCc1cccc(NC(=O)Cn2nc3c(N(C)C4CCCCC4)nccn3c2=O)c1` registered an RP-LC retention time of 851 s. The molecule `CCOc1ccc(NC(=O)CSc2nnc3c4cc(-c5ccc(C)c(C)c5)nn4ccn23)cc1` returned an RP-LC retention time of 973 s. For `COc1cccc(Cc2nc(CCS(=O)(=O)c3ccc(F)cc3)no2)c1`, the RP-LC retention time stood at 904 s. Turning to `COc1ccc(CC(=O)N2CCC3(CC2)NC(=O)c2ccc(Cl)cc2N3)cc1`, the RP-LC retention time came out at 787 s. `O=[N+]([O-])c1ccccc1OCC(O)CN1CCN(c2ccccc2F)CC1` (stereo not given) registered an RP-LC retention time of 577 s.

`CN1CCCn2cc(S(=O)(=O)NCc3ccc(F)cc3Cl)cc2C1=O`: the RP-LC retention time came out at 707 s.

For `CCn1c(=O)c(C(=O)NCc2ccccc2OC)nc2cccnc21`, the RP-LC retention time is 800 s. For `CC(=O)c1cccc(NC(=O)N2CCc3cc(-c4ccc(C(=O)N5CCOCC5)cc4)ccc32)c1`, the RP-LC retention time amounted to 918 s. In turn, `COc1cccc(CNC(=O)Cn2c(=O)c(CCC(=O)NCC(C)C)nc3ccccc32)c1OC` showed an RP-LC retention time of 757 s. Regarding `CCC1=C(c2ccc(C)cc2)S(=O)(=O)N=C1N1CCC(C(=O)NCCCOC(C)C)CC1`, the RP-LC retention time came to 844 s.

In turn, `NS(=O)(=O)c1ccc2nc(NC(=O)C3=COCCO3)sc2c1` gave an RP-LC retention time of 613 s. With `Cc1cc2[nH]c(C(=O)NC(C)c3ccccc3)c(CN3CCOCC3)c2s1` (stereo not given), the RP-LC retention time is 688 s. In turn, `O=C(Nc1ccccc1)N1CCN(Cc2nc3cc(Cl)ccc3o2)CC1` gave an RP-LC retention time of 716 s. Molecule `Cc1ccnc(NC(=O)c2ccc(Cn3cncn3)cc2)c1` gave an RP-LC retention time of 593 s. With `O=C(Cn1nc2c3ccccc3ncn2c1=O)NCCc1ccc(Cl)cc1` the figure was 707 s; with `CC1=NS(=O)(=O)N(C)C=C1C(=O)OCCc1ccccc1`, 967 s; with `CNC(=O)[C@@H]1CN(C(=O)CCc2cc(OC)no2)C[C@H]1c1nc(C)no1`, 620 s. With `CCN(CCN(C)C)C(=O)CN1C(=O)C(Oc2ccc(F)cc2)C12CCCCC2` (stereo not given) the figure was 724 s; with `CN(CCc1ccccn1)C(=O)CCC1CCCN(c2cc(NC3CC3)ncn2)C1` (stereo not given), 561 s. `COCCC(=O)N1CCCCC1c1nncn1Cc1ccccc1` (stereo not given) had an RP-LC retention time of 643 s.

`O=C1NC(C(=O)NCCCn2cccn2)Cn2cccc21` (stereo not given) displayed an RP-LC retention time of 585 s. Regarding `C=CCN1C(=O)COc2ccc(-c3csc(NC(=O)CC(C)C)n3)cc21`, the RP-LC retention time stood at 954 s. Consider `CC(C)n1c(=O)c2ccccc2n(Cc2nc(-c3cccc(C(F)(F)F)c3)no2)c1=O`, for which the RP-LC retention time came out at 1230 s.

On to `O=C(NC1CC1)c1ccc(OCC2CCCN2C(=O)c2ccccc2C(F)(F)F)cc1` (stereo not given), for which the RP-LC retention time was 832 s. As to `CCc1nc(N2CCCC2=O)sc1C(=O)NCc1ccccc1Cl`, the RP-LC retention time is 874 s. As to `Cc1nc(-c2ccncc2)nc2c1CCC(=O)N2Cc1ccco1`, the RP-LC retention time stood at 666 s. As to `COC(=O)c1c(-c2cccc(Cl)c2)noc1NCc1ccccn1`, the RP-LC retention time stood at 897 s.

As for `O=C1NCCCCCCN(C(=O)Nc2ccccc2)[C@H]2CCCC[C@@H]12`, the RP-LC retention time stood at 805 s. In turn, `O=C(N1CCCC1c1nc(CCOCC2CC2)no1)C1(c2ccccc2)CC1` (stereo not given) returned an RP-LC retention time of 886 s.

In turn, `CC(NCC(O)COc1c(F)cc(Br)cc1F)c1ccccc1` (stereo not given) yielded an RP-LC retention time of 618 s. For the molecule `CC(C)CCNC(=O)c1ccc(Cn2c(C(F)(F)F)nc3cccnc32)cc1`, the RP-LC retention time is 905 s. The value for `Cc1ccc(S(=O)(=O)N2C(=O)CCC2C(=O)Nc2ccc(C)c(F)c2)cc1C` (stereo not given) was 1020 s; that for `O=C(C1CC1)N1CCCCC1c1nc(-c2cnccn2)no1` (stereo not given) was 638 s. In the case of `CC(=O)N1CCc2cc(S(=O)(=O)C(C)CC(=O)N3CCN(c4cccc(C)c4C)CC3)ccc21` (stereo not given), the RP-LC retention time was 935 s. Regarding `CCc1nc(-c2csc(S(=O)(=O)N3CCCC(C(=O)Nc4cc(C)on4)C3)c2)no1` (stereo not given), the RP-LC retention time was found to be 896 s. `Cc1ccc(Nc2nc(-c3ccncc3)nc3ccccc23)cc1` came in with an RP-LC retention time of 797 s. Take `CC(=O)Nc1nsc(N2CCC(C(=O)NCc3ccc(F)cc3Cl)CC2)n1`: the RP-LC retention time was 863 s. The value for `CCOC(=O)c1nnc2c(-c3ccccc3)cnn2c1C` was 961 s; that for `CC(C)(C)NC(=O)c1ccc2c(c1)CCCN2S(C)(=O)=O` was 746 s.

For `CCc1nc(OCC(=O)Nc2cc(OC)cc(OC)c2)c2ccccc2n1`, the RP-LC retention time was 720 s.

Regarding `CCn1cc(C2=CCN(C(=O)Nc3ccc(OC)cc3)CC2)c2cccnc21`, the RP-LC retention time was determined as 811 s. The value for `Cn1cnc(S(=O)(=O)N2CCC[C@H](n3c(=O)n(C)c4cccnc43)C2)c1` was 654 s; that for `CCOC(=O)c1noc2ncnc(Nc3cc(C)ccc3C)c12` was 1030 s; that for `Cc1ccc(N2CCN(C(=O)c3cn4cccc(C)c4n3)CC2)cc1` was 682 s. As to `CCN1C(=O)c2cccnc2Sc2cc(C(=O)N3CCCC3)ccc21`, the RP-LC retention time amounted to 684 s. Take `CCS(=O)(=O)c1ccc(C(=O)Nc2nc3c(s2)CC(C)CC3)cc1` (stereo not given): the RP-LC retention time was 867 s. On to `CCc1nn2c(CNC(=O)c3cc(F)ccc3Cl)c(C)nc2s1`, for which the RP-LC retention time came out at 669 s. With `CCOC(=O)c1sc(NC(=O)CN2CCN(c3ccccn3)CC2)nc1C` the figure was 605 s. `CN(C)S(=O)(=O)N1CCC(c2nnc(C(F)(F)F)o2)CC1` came in with an RP-LC retention time of 758 s. `Cc1onc(C(=O)N2CCCCCCNC(=O)[C@@H]3CCCC[C@@H]32)c1CN1CCCCC1` registered an RP-LC retention time of 686 s. In turn, `CCOC(=O)COC(=O)c1cn(-c2ccc(F)cc2)c(=O)c2ccccc12` gave an RP-LC retention time of 1030 s. With `O=C(NCc1ccc(F)cc1F)c1csc(C(=O)NC2CC2)n1` the figure was 789 s; with `COc1cc(OC)c(NC(=O)C2CCN(C(=O)c3cc(-c4ccncc4)n[nH]3)CC2)cc1Cl`, 611 s; with `O=C(CCn1cnc2cc(-c3noc(-c4ccc5c(c4)OCO5)n3)ccc21)N1CCCC1`, 727 s. Consider `CN(C)c1ncccc1C(=O)Nc1ccc(F)cc1`, for which the RP-LC retention time stood at 610 s. The molecule `O=C1C2N=NN(Cc3nc(-c4ccc5c(c4)OCO5)no3)C2C(=O)N1c1ccccc1` (stereo not given) registered an RP-LC retention time of 893 s. The value for `CCc1cc(-c2csc(S(=O)(=O)N3CCN(C4CCCCC4)CC3)c2)on1` was 723 s.

The values above are taken from the METLIN SMRT retention time set (Domingo-Almenara et al. 2019).
